The record followed here is patent publication US9283234B2, “Compositions and methods for suppressing endometrial proliferation” (REPROS THERAPEUTICS INC., priority 2006, dated 2016).

In one test the test system is endometrium. The experiment in a line: Six month endometriosis study: endometrial thickness (ultrasound) / endometrial proliferation. The note with it: LUPRON once per month. The test is classed as in vivo, pre-menopausal adult women. From the text: Comparisons were made to both baseline and visit one ultrasound measurements of endometrial thickness. […]
For test [1], the system named is pain associated with endometriosis. As to the kind of experiment: Six month endometriosis study: pain diaries and symptom surveys. The test is classed as in vivo, pre-menopausal adult women. Further details: key to score for intensity of pain on a bad day: 0-10 scale; 0 = no pain, 10 = extreme pain. The procedure:
Pain reduction also occurred more rapidly than with the active control, LUCRIN. The response of pain to treatment in this study was analyzed in two ways. Patients in the study maintained daily pain diaries to record the severity and frequency of pain. In addition, at each office visit, patients filled out endometriosis symptom surveys that included a questionnaire that evaluated intensity of pain on a bad day on a scale of 0-10 with 10 being the greatest intensity. […] There appeared to be a dose dependent effect on pain reduction. […] This decrease in duration of pain was statistically better (p=0.0012) than the 117.8 (74%; standard deviation 51.4 days) pain free days achieved with LUCRIN. […] Patients on CDB-4124 12.5 mg and 25 mg doses had 115.9 (66%; standard deviation 69.2 days) and 133.6 (75%; standard deviation 27.4 days) pain free days, respectively. […] The 25 mg and 12.5 mg doses of CDB-4124 were not statistically different from LUCRIN. […] The intensity of pain was asked by the question: “On a scale of 1-10, with 0 being no pain and 10 being extreme pain, how intense was your pain on a bad day?” The mean scores for intensity of pain at baseline were 6.3 for the CDB-4124 groups and 6.1 for the LUCRIN group. […] At month three all four active treatment groups had statistically significant reduction in pain compared with baseline, with the following scores: 3.7 (p=0.03) for 12.5 mg CDB-4124, 3.2 (p=0.03) for 25 mg CDB-4124, 1.6 (p=0.015) for 50 mg CDB-4124 and 1.5 (p=0.016) for LUCRIN. These dose related reductions continued until month six when the values for pain intensity were 2.0 (p=0.008), 2.8 (p=0.023), 0.6 (p=0.004) and 0.7 (p=0.016), respectively. Two months after stopping treatment pain returned and was of similar intensity in all four treatment groups.

Test [2] in a line: Measuring serum corticosterone in rats. The note with it: progesterone, CDB-4124 and RU-486 groups compared.

On to `CCNC(=O)[C@@H]1CCCN1C(=O)[C@H](CCCNC(=N)N)NC(=O)[C@H](CC(C)C)NC(=O)[C@@H](CC(C)C)NC(=O)[C@H](Cc1ccc(O)cc1)NC(=O)[C@H](CO)NC(=O)[C@H](Cc1c[nH]c2ccccc12)NC(=O)[C@H](Cc1c[nH]cn1)NC(=O)[C@@H]1CCC(=O)N1` [LUPRON, leuprolide acetate, reference compound], for which the “Endometrium (mm) 1st dose” value in the test on endometrium (1st dose) came to 7.5 mm. Further, the “Endometrium (mm) 3 months” value in the test on endometrium (3 months) is given as 2.75 mm. Also, the “Endometrium (mm) screening” value with endometrium (screening) stood at 7.9 mm. In addition, in test [1] (LUCRIN once per month), the “percent pain free days over the 180 day treatment period” value is listed as 74%. Besides, the “distress related to pain over the six month exposure” value in test [1] (all doses, on average) is reported as “reduced distress related to pain”. For the same compound, in test [1] (baseline, scale 0-10), the “mean score for intensity of pain on a bad day” value is reported as 6.1. For the same compound, the “score for intensity of pain on a bad day” value was 0.7 in test [1] (month six, LUCRIN once per month) and 1.5 in test [1] (month three, LUCRIN once per month).
In the case of `CC(=O)[C@H]1CC[C@H]2[C@@H]3CCC4=CC(=O)CC[C@]4(C)[C@H]3CC[C@]12C` [progesterone, reference compound], the “differences in serum corticosterone between treatment groups” value in test [2] is on record as “No differences in serum corticosterone”.
